Test [1] concerns the target GDP-bound NRAS wild-type protein (Homo sapiens, UniProt P01111). Kind of test: Binding to NRAS by surface plasmon resonance (SPR), Single Cycle Kinetics. On the technique in general: SPR reads the build-up and loss of mass on a sensor chip optically.
Test [2] has as its target GDP-bound HRAS wild-type protein (Homo sapiens, UniProt P01112). Kind of test: Binding to HRAS by surface plasmon resonance (SPR), Single Cycle Kinetics.
The mark [3] stands for this setting: KD ratio NRAS/KRAS, class symbols.
Setting [4] is: KD ratio HRAS/KRAS, class symbols.

Here are results for seven compounds from patent US20250230193A1, “CYCLIC COMPOUND HAVING SELECTIVE KRAS INHIBITORY EFFECT ON HRAS AND NRAS” (CHUGAI SEIYAKU KABUSHIKI KAISHA, priority 2022, published 2025).

SMILES strings stand for the structures. Where a SMILES comes first, the peptide text is derived from it. Bridges are numbered along the chain shown (N, C = ends). [ ]: non-standard residue; d: D form. The star is where a group is joined. hPhe(3-Cl-4-CF3) = N[C@@H](CCc1ccc(C(F)(F)F)c(Cl)c1)C(=O)O; NPrPhe(4-CF3) = CCCN[C@@H](Cc1ccc(C(F)(F)F)cc1)C(=O)O; NMeGly(cPent) = CN[C@H](C(=O)O)C1CCCC1; Pro(4,4-F2) = O=C(O)[C@@H]1CC(F)(F)CN1; NMeD = CN[C@@H](CC(=O)O)C(=O)O; NMeL = CN[C@@H](CC(C)C)C(=O)O; Morpholide = C1CN(*)CCO1; Ac5c = NC1(C(=O)O)CCCC1; Aze = O=C(O)[C@@H]1CCN1; NPrGly = CCCNCC(=O)O; NEtG = CCNCC(=O)O; Sar = CNCC(=O)O

Chain of GDP-bound NRAS wild-type protein (P01111 whole entry): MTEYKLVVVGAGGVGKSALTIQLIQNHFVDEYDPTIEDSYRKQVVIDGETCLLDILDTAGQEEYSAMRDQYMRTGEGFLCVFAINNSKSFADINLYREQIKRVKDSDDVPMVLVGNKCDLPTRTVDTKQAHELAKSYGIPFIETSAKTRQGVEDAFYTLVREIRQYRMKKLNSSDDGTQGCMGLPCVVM
Chain of GDP-bound HRAS wild-type protein (P01112 whole entry): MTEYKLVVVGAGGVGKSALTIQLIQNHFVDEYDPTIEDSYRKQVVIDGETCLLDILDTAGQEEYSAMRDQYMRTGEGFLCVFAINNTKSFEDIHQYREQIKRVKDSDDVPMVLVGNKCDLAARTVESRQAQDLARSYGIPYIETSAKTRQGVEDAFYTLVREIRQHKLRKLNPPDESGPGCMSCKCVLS

Regarding `CCCN1C(=O)CN(C)C(=O)[C@@H]2CCN2C(=O)[C@H]([C@@H](C)CC)NC(=O)[C@H](CC(C)C)N(C)C(=O)C[C@@H](C(=O)N(C)C)N(C)C(=O)[C@H](C2CCCC2)N(C)C(=O)C2(CCCC2)NC(=O)[C@@H]2CC(F)(F)CN2C(=O)[C@H](CCc2ccc(C(F)(F)F)c(Cl)c2)NC(=O)CN(C)C(=O)[C@@H]1Cc1ccc(C(F)(F)F)cc1` [PP0431] ([NMeL]I[Aze][Sar][NPrPhe(4-CF3)][Sar][hPhe(3-Cl-4-CF3)][Pro(4,4-F2)][Ac5c][NMeGly(cPent)][NMeD]-NMe2; lactam N-11), the “NRAS/KRAS (ratio of KD value with respect to GDP-bound NRAS wild-type protein to KD value with respect to KRAS)” value in test [1] (KD ratio NRAS/KRAS, SPR) is “B (a compound having 3 or more and less than 10 is denoted as B)”. Moreover, the “HRAS/KRAS (ratio of KD value with respect to GDP-bound HRAS wild-type protein to KD value with respect to KRAS)” value in test [2] (KD ratio HRAS/KRAS, SPR) was “C (A compound having a KD ratio of 0.1 or more and less than 3 is denoted as C)”.
As for `CCCN1CC(=O)NC2(CCCC2)C(=O)N(C)[C@@H](C2CCCC2)C(=O)N(C)[C@H](C(=O)N2CCOCC2)CC(=O)N(C)[C@@H](CC(C)C)C(=O)N[C@@H]([C@@H](C)CC)C(=O)N(CC)CC(=O)N(C)CC(=O)N(CCC)[C@@H](Cc2ccc(C(F)(F)F)cc2)C(=O)N(C)CC(=O)N[C@@H](CCc2ccc(C(F)(F)F)c(Cl)c2)C1=O` [PP0301] ([NMeL]I[NEtG][Sar][NPrPhe(4-CF3)][Sar][hPhe(3-Cl-4-CF3)][NPrGly][Ac5c][NMeGly(cPent)][NMeD]-Morpholide; lactam N-11), the “NRAS/KRAS (ratio of KD for GDP-bound NRAS wild-type to KD for KRAS)” value in test [1] (KD ratio NRAS/KRAS, SPR) is “B (a compound having 3 or more and less than 10 is denoted as B)”. Moreover, the “HRAS/KRAS (ratio of KD for GDP-bound HRAS wild-type to KD for KRAS)” value in test [2] (KD ratio HRAS/KRAS, SPR) is “C (A compound having a KD ratio of 0.1 or more and less than 3 is denoted as C)”.
Take `CCO[C@@H]1C[C@H]2C(=O)NC3(CCC3)C(=O)N(C)[C@@H](C3CCCC3)C(=O)N(C)[C@H](C(=O)N(C)C)CC(=O)N(C)[C@@H](CC)C(=O)N[C@@H]([C@@H](C)CC)C(=O)N(C)CC(=O)N(C)[C@H]3CC=C(C)CN(C3=O)[C@@H](Cc3ccc(C(F)(F)F)cc3)C(=O)N(C)CC(=O)N[C@@H](CCc3cc(F)c(C(F)(F)F)c(F)c3)C(=O)N2C1` [PP0827]: the “NRAS/KRAS (ratio of KD value with respect to NRAS to KD value with respect to KRAS)” value in test [1] (KD ratio, GDP-bound NRAS wild-type vs GDP-bound KRAS wild-type, SPR) was “C (A compound having a KD ratio of 0.1 or more and less than 3 is denoted as C)”. The “HRAS/KRAS (ratio of KD value with respect to HRAS to KD value with respect to KRAS)” value in test [2] (KD ratio, GDP-bound HRAS wild-type vs GDP-bound KRAS wild-type, SPR) is “C (A compound having a KD ratio of 0.1 or more and less than 3 is denoted as C)”.
In the case of `CCC(CC)[C@H]1C(=O)N(C)[C@H](C(=O)N(C)C)CC(=O)N(C)[C@@H](COC)C(=O)N[C@@H]([C@@H](C)CC)C(=O)N(C)CC(=O)N(C)[C@H]2C/C=C\CCN(C2=O)[C@@H](Cc2ccc(C)cc2)C(=O)N(C)CC(=O)N[C@@H](CCc2ccc(C(F)(F)F)c(OC)c2)C(=O)N2CCCC[C@H]2C(=O)NC2(CC(C)(C)C2)C(=O)N1C` [PP2937], the “NRAS/KRAS (ratio of KD value with respect to GDP-bound NRAS wild-type protein to KD value with respect to KRAS)” value in test [1] (setting [3]) was “A (a compound having 10 or more and less than 20 is denoted as A)”. The “HRAS/KRAS (ratio of KD value with respect to GDP-bound HRAS wild-type protein to KD value with respect to KRAS)” value in test [2] (setting [4]) was “A (a compound having 10 or more and less than 20 is denoted as A)”.
Take `CC[C@H](C)[C@@H]1NC(=O)[C@H](COC)N(C)C(=O)C[C@@H](C(=O)N(C)C)N(C)C(=O)[C@H](C2CCCCC2)N(C)C(=O)C2(CC(C)(C)C2)NC(=O)[C@@H]2C[C@@H](OC(C)C)CN2C(=O)[C@H](CCc2cc(F)c(C(F)(F)F)c(F)c2)NC(=O)CN(C)C(=O)[C@H](Cc2ccc(C)cc2)N2CC/C=C\C[C@@H](C2=O)N(C)C(=O)CN(C)C1=O` [PP2660]: the “NRAS/KRAS (ratio of KD value with respect to GDP-bound NRAS wild-type protein to KD value with respect to KRAS)” value in test [1] (setting [3]) was “A (a compound having 10 or more and less than 20 is denoted as A)”. Besides, the “HRAS/KRAS (ratio of KD value with respect to GDP-bound HRAS wild-type protein to KD value with respect to KRAS)” value in test [2] (setting [4]) is “A (a compound having 10 or more and less than 20 is denoted as A)”.
Turning to `CCC[C@H]1C(=O)N[C@@H](C2CCCC2)C(=O)N(C)CC(=O)N(C)[C@H]2C/C=C\CCN(C2=O)[C@@H](Cc2ccc(C)cc2)C(=O)N(C)CC(=O)N[C@@H](CCc2cc(F)c(C(F)(F)F)c(F)c2)C(=O)N2C[C@H](OCC)C[C@H]2C(=O)NC2(CC(C)(C)C2)C(=O)N(C)[C@@H](C2CCCC2)C(=O)N(C)[C@H](C(=O)N(C)C)CC(=O)N1C` [PP2988], the “NRAS/KRAS (ratio of KD value with respect to GDP-bound NRAS wild-type protein to KD value with respect to KRAS)” value in test [1] (KD ratio NRAS/KRAS, SPR, GDP-bound wild-type proteins) was “B (a compound having 3 or more and less than 10 is denoted as B)”. Besides, in test [2] (KD ratio HRAS/KRAS, SPR, GDP-bound wild-type proteins), the “HRAS/KRAS (ratio of KD value with respect to GDP-bound HRAS wild-type protein to KD value with respect to KRAS)” value is “B (a compound having 3 or more and less than 10 is denoted as B)”.
For the compound `CCC[C@H]1C(=O)N[C@@H]([C@@H](C)CC)C(=O)N(C)CC(=O)N(C)[C@H]2C/C=C\CCN(C2=O)[C@@H](Cc2ccc(C)cc2)C(=O)N(C)CC(=O)N[C@@H](CCc2ccc(Cl)c(Cl)c2)C(=O)N2C[C@H](OCC)C[C@H]2C(=O)NC2(CC(C)(C)C2)C(=O)N(C)[C@@H](CC2CC2)C(=O)N(C)[C@H](C(=O)N(C)C)CC(=O)N1C` [PP2799], the “NRAS/KRAS (ratio of KD value with respect to GDP-bound NRAS wild-type protein to KD value with respect to KRAS)” value in test [1] (setting [3]) was “A (a compound having 10 or more and less than 20 is denoted as A)”. The “HRAS/KRAS (ratio of KD value with respect to GDP-bound HRAS wild-type protein to KD value with respect to KRAS)” value in test [2] (setting [4]) is “A (a compound having 10 or more and less than 20 is denoted as A)”.
